Article PMC12799421, “Inhibition of constitutive activity of the atypical chemokine receptor 3 by the small-molecule inverse agonist VUF16840” (Molecular Pharmacology, 2025)
Like-named read-outs stand apart in the source and are kept apart here.

Columns and labels:
ACKR3 = target: T1, ACKR3 (Homo sapiens, UniProt P25106); test: BRET β-arrestin2 recruitment to hACKR3 in HEK293T cells; type: cell-based; conditions: for EC50: * VUF16840 as inverse agonist, mean ± SD (N), read-out: β-arrestin2 BRET pEC50 (converted)
T1 construct: expressed in transfected cells; host or cells: HEK293T
T1 sequence (P25106 whole entry): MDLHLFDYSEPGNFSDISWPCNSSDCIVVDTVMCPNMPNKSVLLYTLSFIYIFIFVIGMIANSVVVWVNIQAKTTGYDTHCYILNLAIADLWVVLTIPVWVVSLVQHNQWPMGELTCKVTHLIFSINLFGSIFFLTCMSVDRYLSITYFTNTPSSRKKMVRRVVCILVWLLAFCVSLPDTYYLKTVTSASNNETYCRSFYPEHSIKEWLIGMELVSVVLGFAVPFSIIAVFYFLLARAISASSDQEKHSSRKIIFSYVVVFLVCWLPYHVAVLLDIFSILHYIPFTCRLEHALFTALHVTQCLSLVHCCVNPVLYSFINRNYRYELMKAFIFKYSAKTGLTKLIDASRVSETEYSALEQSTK
Procedure: For bioluminescence resonance energy transfer (BRET) experiments, several BRET acceptor constructs were used that consist of the pcDEF3 vector with either GRK2 (NCBI: NM_174710.2), β-arrestin1 (NCBI: NM_174243.3), or β-arrestin2 (NCBI: XM_005220181.4) fused at the C-terminus with a SpeI/NotI linker to mVenus (NCBI: KP666136.1), as previously described.[34]
For 1·10^6 HEK293T cells, a transfection mix consisting of 2 μg plasmid DNA, 12 μg linear PEI in a total volume of 200 μL 150 mM NaCl was made and thoroughly vortexed. The transfection mix was incubated for 15 minutes and consequently added to a cell suspension with a final concentration of 3·10^5 cells/mL. For functional studies this cell suspension was immediately transferred to a poly-L-lysine-coated white 96-well plate, with 3·10^4 cells per well. […] For BRET-based membrane localization experiments, the 2 μg plasmid DNA consisted of ACKR3-NL (0.05 μg), mVenus-CAAX (0.25 μg), and pcDEF3 vector DNA without insert (1.7 μg).
Mean pIC50 values were determined by averaging fitted values from individual experiments. Graphs depict the pooled data of all experiments. Similarly, sigmoidal, ligand-induced concentration-dependent activation or inhibition of the proximity between ACKR3 and the protein of interest was analyzed using GraphPad Prism 8, by fitting a 3-parameter concentration-response model to the data, to determine pEC50/pIC50 values. Mean pEC50 values and pIC50 values were determined by averaging fitted values from individual experiments. Graphs depict the pooled data of all experiments, for which values are normalized, per experiment, to the fold difference compared with basal signal.

CCR3 = CCR3 (Homo sapiens, UniProt P51677); test: NanoBiT β-arrestin2 recruitment to CCR3, concentration-response; type: cell-based
CCR3, sequence (P51677 whole entry): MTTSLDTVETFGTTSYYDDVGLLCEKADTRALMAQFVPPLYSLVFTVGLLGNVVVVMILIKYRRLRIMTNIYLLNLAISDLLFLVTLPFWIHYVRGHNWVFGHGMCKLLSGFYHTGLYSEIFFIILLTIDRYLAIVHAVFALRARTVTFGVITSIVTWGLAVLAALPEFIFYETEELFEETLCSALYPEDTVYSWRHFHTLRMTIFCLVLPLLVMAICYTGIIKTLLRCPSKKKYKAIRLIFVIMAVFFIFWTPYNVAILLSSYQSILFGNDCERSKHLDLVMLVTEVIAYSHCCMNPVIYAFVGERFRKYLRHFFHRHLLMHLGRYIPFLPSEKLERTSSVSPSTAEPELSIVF
CCR3, sequence (P32121 whole entry partner): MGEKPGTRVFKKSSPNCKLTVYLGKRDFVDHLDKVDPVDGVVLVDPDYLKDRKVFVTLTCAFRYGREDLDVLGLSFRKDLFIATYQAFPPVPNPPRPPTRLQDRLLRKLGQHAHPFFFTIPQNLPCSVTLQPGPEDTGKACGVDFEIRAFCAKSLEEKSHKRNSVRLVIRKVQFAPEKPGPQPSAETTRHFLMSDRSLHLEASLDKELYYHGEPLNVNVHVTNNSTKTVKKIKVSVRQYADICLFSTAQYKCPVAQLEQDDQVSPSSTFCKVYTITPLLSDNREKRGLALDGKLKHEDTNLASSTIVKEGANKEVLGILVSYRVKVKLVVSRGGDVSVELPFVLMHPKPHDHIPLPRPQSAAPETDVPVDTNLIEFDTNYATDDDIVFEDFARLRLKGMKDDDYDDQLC
Procedure: The pharmacological modulation of all chemokine receptors by VUF16840 was performed according to an established method.[8]^,[23]^,[39] Briefly, β-arrestin2 recruitment to chemokine receptors in response to 1 μM VUF16840 or positive control chemokines was monitored by NanoLuc complementation assay (NanoBiT, Promega). Four hours after transfection, cells were harvested, incubated for 25 minutes at 37 °C with furimazine and distributed into a white 96-well plates (1 × 10^5 cells per well). β-Arrestin2 recruitment was then detected for 20 minutes upon treatment with 1 μM VUF16840 (or increasing concentrations ligand for experiments with CC chemokine receptor [CCR3]) using the Mithras LB940 luminometer (Berthold Technologies). To evaluate the antagonist properties of VUF16840, full agonists of each receptor were added after the 20-minute incubation with VUF16840. Signal from wells treated with full agonist only was defined as 100% activity and signals from wells treated with no agonist were used to set 0% activity.
Supplemental Figure 5 – Modulation of CCR3 receptor by VUF16840. Recruitment of β-arrestin2 towards CCR3 chemokine receptor was measured using a NLuc complementation assay in HEK293T cells. The concentration-dependent activation of the CCR3 was determined for VUF16840 and the endogenous agonist CCL13. All values depict the mean ± SD of ≥ 3 experiments.

SMILES	EC50 (ACKR3) [nM]	EC50 (CCR3; HEK293T, NanoBiT, read-out: EC50, activation of CCR3 (β-arrestin2 recruitment)) [nM]	efficacy at CCR3 relative to endogenous agonist CCL13 (CCR3; β-arrestin2 recruitment) [fold]	IC50 (ACKR3; constitutive, no agonist, read-out: IC50, reduction of β-arrestin2 recruitment to hACKR3 (BRET)) [nM]	IC50 (ACKR3; versus 100 nM CXCL11, read-out: β-arrestin2 BRET, Inhibition by VUF16840 (pIC50) (converted)) [nM]	IC50 (ACKR3; versus 100 nM CXCL12, read-out: β-arrestin2 BRET, Inhibition by VUF16840 (pIC50) (converted)) [nM]	IC50 (ACKR3; versus 100 nM VUF15485, read-out: β-arrestin2 BRET, Inhibition by VUF16840 (pIC50) (converted)) [nM]
COc1cc(C(=O)N(CCC2CCCN2C)CC(C)=Cc2ccccc2F)cc(OC)c1OC (centres unmarked) [VUF15485, reference compound]	12.6						
COc1ccccc1CCNC(=O)C1CN(C2CCCCC2)CCC1NC(=O)c1cc(-c2ccc(F)cc2F)on1 (centres unmarked) [VUF16840]	10	200	1.4	10	2	2.51	10
